Reference: patent publication US20240366553A1, “ASPARTIC ACID COPPER COMPLEX, AND USE THEREOF” (GUANGZHOU INSIGHTER BIOTECHNOLOGY CO., LTD., priority 2021, published 2024)
Like-named read-outs stand apart in the source and are kept apart here.

How the values were obtained:
[1] = tested on: Lingnan yellow-feathered, fast-growing, and large-sized broilers; settings: for Average feed consumption / Average weight gain / Feed-to-meat ratio / Survival rate (%) / Relative weight gain rate (%): broilers aged 1 to 21 days; for Relative weight gain rate (%): relative to control group; for Physical characteristics of the experimental chickens: experimental groups of compounds 1-7; for Feed conversion decreased by / Relative weight gain rate increased by: versus control
Source text: (§1) Experimental animals: 900 one-day-old Lingnan yellow-feathered, fast-growing, and large-sized broilers; 150 weaned piglets;
(§2) Feeds: basal feed for chickens and basal feed for pigs that contain no antimicrobial drugs, copper sources and growth promoters;
(§3) Experimental samples: compound 1, compound 2, compound 3, compound 4, compound 5, compound 6, compound 7,
900 one-day-old Lingnan yellow-feathered, fast-growing, and large-sized broilers were randomly divided into 18 groups (50 broilers/group). […] The broilers had free access to food. The weight gain and feed conversion of the experimental chickens (aged from 1 to 21 days) in each experimental group were recorded.

weaned piglets = settings: for Average weight gain / Feed-to-meat ratio / Survival rate (%) / Total feed consumption / Total weight gain / Relative weight gain rate (%): weaned piglets, 30 days; for Total feed consumption / Total weight gain: 10 pigs; for Relative weight gain rate (%): control group = 100; for Improvement in the feed conversion of the experimental pigs compared with compound 4: used at the same doses (50 mg/kg)
Source text: as §1, §2, §3
150 weaned piglets were grouped according to Table 2 (10 piglets/group). […] The piglets had free access to food. The weight gain and feed conversion of the experimental pigs in each experimental group were recorded within 30 days after […] weaning.

[2] = tested on: black carp (subyearlings); assay: Use of aspartic acid copper complex in aquaculture feeds (black carp breeding experiment); format: in vivo; settings: 30 mg/kg in feed (as copper ions), 8 weeks
Procedure: Experimental fishes: The experimental fishes used were black carp (subyearlings), which were provided by the Dafeng fish nursery (Huizhou city, Guangdong province). Healthy and active fingerling black carps (uniform in size) were fed for 4 weeks in a big net cage (4×2×1.5 m^3) and then the formal breeding experiment was carried out. The experimental systems were small floating net cages (1.1×1.1×1.1 m^3 in size). Each small net cage was provided with an air-filling head, which allowed for continuous inflation of the cages for 24 h a day. The small net cages and the acclimatization net cage were all placed in a 3500 m^2 pond in the experimental field. […] During the trial, 480 black carps (fasted for 1 d) were randomly divided into 10 groups, with 4 replicates for each group and 12 fishes in each replicate. After weighing as a whole, the black carps were randomly placed into […] and fed with different experimental feeds.
Experimental feeds: The experimental feeds were formulated following the formula in Table 5. According to Table 6, different copper element supplements (calculated based on the copper ions) were added to the feeds in different experimental groups, respectively. The feed raw materials were subjected to ultrafine grinding and then granulated into floating expanded feeds (3 mm) using an expansion machine from Jiangsu Muyang Corporation. The demolding temperature was 130° C. 3% soybean oil was externally sprayed using an oil spraying device. The finished product was sealed and stored in a cool place for later use.
Experimental management: During the trial, the carps were manually fed in a restricted dose. The feeding dose was adjusted once a week, and the doses for all groups (based on the initial body weight) were completely consistent. The carps were fed twice a day (at 7:30 and 15:00). The experiment lasted for 8 weeks. During the trial, the water quality was regularly monitored, and throughout the breeding, the water temperature was kept at 26.88±3.08° C., DO>5.0 mg O L^−1, pH 7.8, ammonia nitrogen<0.50 mg NL^−1, and nitrite-nitrogen<0.05 mg N L^−1.
Parametric statistics: During the trial, the carps in each net cage were weighed as a whole one day after discontinuation of feeding, and the average weight gain (g) and feed-to-meat ratio were calculated. The calculation formulas are as follows:
Average weight gain (g)=Average final weight−Average initial weight; Feed-to-meat ratio=Food intake/Weight gain of fishes;

[3] = 50 mg/kg in feed (as copper ion)
[4] = L-aspartic acid 105 mg/kg in feed, no copper source
[5] = L-aspartic acid group (105 mg/kg)
[6] = L-aspartic acid 104 mg/kg in feed, no copper source

Row | SMILES | Average feed consumption [1, 3] [g] | Average weight gain [1, 3] [g] | Feed-to-meat ratio [1, 3] | Survival rate (%) [1, 3] [%] | Relative weight gain rate (%) [1, 3] [%] | Physical characteristics of the experimental chickens [1] | Average weight gain (weaned piglets; [3]) [kg] | Feed-to-meat ratio (weaned piglets; [3]) | Survival rate (%) (weaned piglets; [3]) | Total feed consumption (weaned piglets; [3]) [kg] | Total weight gain (weaned piglets; [3]) [kg] | Relative weight gain rate (%) (weaned piglets; [3]) | Average weight gain [2] [g] | Feed-to-meat ratio [2] | other results
1 | N[C@@H](CC(=O)[O-])C(=O)[O-].[Cu+2] (racemic) [Compound 6, [(Cu(II))(DL-Asp)]] | 912 | 510 | 1.789 | 100 | 107.6 | normal physical characteristics | 12.08 | 2.173 | 100 | 262.46 | 120.8 | 110.8 | 353 | 1.416 | 
2 | N[C@@H](CC(=O)O)C(=O)O [L-aspartic acid, reference compound] |  |  |  |  |  |  |  |  |  |  |  |  |  |  | Average feed consumption [1, 4]: 899 g; Average weight gain [1, 4]: 480 g; Feed-to-meat ratio [1, 4]: 1.873; Survival rate (%) [1, 4]: 100%; Relative weight gain rate (%) [1, 4]: 101.3%; Feed conversion decreased by [1, 5]: 0.32%; Relative weight gain rate increased by [1, 5]: 4.2%; Average weight gain (weaned piglets; [6]): 11.04 kg; Feed-to-meat ratio (weaned piglets; [6]): 2.285; Survival rate (%) (weaned piglets; [6]): 100%; Total feed consumption (weaned piglets; [6]): 252.27 kg; Total weight gain (weaned piglets; [6]): 110.4 kg; Relative weight gain rate (%) (weaned piglets; [6]): 101.28%
3 | N[C@@H](CC(=O)[O-])C(=O)[O-].[Cu+2] [Compound 4, [(Cu(II))(L-Asp)]] | 924 | 508 | 1.819 | 100 | 107.2 | normal physical characteristics | 11.67 | 2.208 | 100 | 257.63 | 116.7 | 107.06 | 344 | 1.453 | Feed conversion decreased by ([1]; 50 mg/kg (as copper ion)): 3.23%; Relative weight gain rate increased by ([1]; 50 mg/kg (as copper ion)): 7.2%
4 | NC(CC(=O)[O-])C(=O)[O-].O.O.[Cu+2] (racemic) [Compound 5, [(Cu(II))(DL-Asp)(H2O)2]] | 917 | 503 | 1.824 | 100 | 106.1 | normal physical characteristics | 11.83 | 2.184 | 100 | 258.35 | 118.3 | 108.5 | 349 | 1.433 | 
5 | NC(CC(=O)[CH2][Cu][O]C(=O)CC(N)C(=O)O)C(=O)O (centres unmarked) [Compound 8, reference compound] |  |  |  | 100 |  |  |  |  | 100 |  |  |  |  |  | Production performance of the experimental pigs (weaned piglets; 50 mg/kg, versus control group): substantially close to that achieved in the control group
6 | N[C@@H](CC(=O)[O-])C(=O)[O-].O.O.[Cu+2] [Compound 2, [(Cu(II))(L-Asp)(H2O)2]. (H2O)0.34] | 908 | 509 | 1.783 | 100 | 107.4 | normal physical characteristics | 12.30 | 2.116 | 100 | 260.21 | 123.0 | 112.8 | 368 | 1.359 | Improvement in the feed conversion of the experimental pigs compared with compound 4 (weaned piglets): about 2 fold
7 | N[C@@H](CC(=O)[O-])C(=O)[O-].O.O.[Cu+2] [Compound 3, [(Cu(II))(L-Asp)(H2O)2]·(H2O)0.62] | 919 | 514 | 1.788 | 100 | 108.4 | normal physical characteristics | 11.92 | 2.114 | 100 | 251.97 | 119.2 | 109.4 | 361 | 1.385 | Improvement in the feed conversion of the experimental pigs compared with compound 4 (weaned piglets): about 2 fold
8 | NC(CC(=O)[O-])C(=O)[O-].O.O.[Cu+2] (racemic) [Compound 7, [(Cu(II))(DL-Asp)(H2O)2]·(H2O)0.16] | 921 | 515 | 1.789 | 100 | 108.6 | normal physical characteristics | 12.16 | 2.198 | 100 | 267.33 | 121.6 | 111.6 | 350 | 1.429 | 
